Experimental data taken from ChEMBL document CHEMBL1201862, “PubChem BioAssay data set” (2004).
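Values below derive from 48-hour exposures of cells grown in 96-well plates, with endpoints linearly interpolated between the two concentrations bracketing the appropriate inhibition level. At the GI50, growth is halved.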 Calls of active or inactive are those of the source. No stated cut-off is given here; in the data, active = GI50 up to about 1.1 µM and inactive = higher.

Columns and labels:
Assay in all cases: NCI tumour cell line growth inhibition, 48 h
[1] = system: A549
[2] = system: CAKI-1
[3] = system: CCRF-CEM
[4] = system: COLO 205
[5] = system: HCC 2998
[6] = system: HCT-116
[7] = system: HT-29
[8] = system: M14
[9] = system: MOLT-4
[10] = system: Malme-3M
[11] = system: NCI-H226
[12] = system: OVCAR-3
[13] = system: RPMI-8226
[14] = system: SF-295
[15] = system: SNB-19
[16] = system: SW-620
[17] = system: 786-0
[18] = system: PC-3
[19] = system: MDA-MB-231

Measured: GI50

Cc1ccc(C)c(C(=O)CC2OC(O)C(Cl)C2Cl)c1 (stereo not given)
inactive: [1] > 100 µM | [2] 30.4 µM | [3] 41.1 µM | [4] > 100 µM | [5] > 100 µM | [6] 29.7 µM | [7] > 100 µM | [8] > 100 µM | [9] 8.65 µM | [10] 67.5 µM | [11] > 100 µM | [12] 36.6 µM | [13] 12.4 µM | [14] > 100 µM | [15] > 100 µM | [16] 18.7 µM

Cc1nnc(Nc2ccccc2)o1
inactive: [17] > 100 µM | [1] > 100 µM | [2] > 100 µM | [3] > 100 µM | [4] > 100 µM | [6] > 100 µM | [7] > 100 µM | [8] > 100 µM | [9] > 100 µM | [10] > 100 µM | [11] > 100 µM | [12] > 100 µM | [18] > 100 µM | [13] > 100 µM | [14] > 100 µM | [15] > 100 µM | [16] > 100 µM

NC1=NN(c2ccccc2)C(=O)C1/C(=N\NC(=O)c1cc2ccccc2cc1O)C(=O)Nc1ccc(Cl)c(Cl)c1 (stereo not given)
inactive: [17] 31.3 µM | [1] 42.8 µM | [2] 54.5 µM | [3] 10.1 µM | [4] 18.9 µM | [5] 43 µM | [6] 35.2 µM | [7] 59.2 µM | [8] 19.6 µM | [9] 22.9 µM | [10] 33 µM | [11] 64.9 µM | [12] 5.57 µM | [13] 26 µM | [14] 35.8 µM | [15] 25.4 µM | [16] 33.1 µM

O=C(OC1C(Oc2ccccc2COC(=O)C2(O)C=CCCC2=O)OC(CO)C(O)C1O)c1ccccc1 (stereo not given)
inactive: [17] 25.3 µM | [1] 7.05 µM | [2] 4.11 µM | [4] 23.3 µM | [6] 45.9 µM | [7] 60.4 µM | [8] 35 µM | [19] 35.5 µM | [9] 6.03 µM | [10] 18 µM | [11] 23.8 µM | [18] 28.4 µM | [13] 13.5 µM | [15] 40.9 µM | [16] 24.7 µM

O=c1[c-](-c2ccccc2)[se]c(-c2ccccc2)[n+]1-c1ccccc1
inactive: [17] 10.5 µM | [1] 16.3 µM | [2] 19.1 µM | [3] 3.87 µM | [4] 15.5 µM | [5] 6.35 µM | [6] 3.51 µM | [7] 23 µM | [8] 4.99 µM | [9] 18.8 µM | [10] 15.5 µM | [11] 3.13 µM | [12] 10 µM | [13] 29.1 µM | [14] 3.61 µM | [15] 7.52 µM | [16] 12.5 µM

NNc1ncc2c(n1)-c1ccccc1OC2
inactive: [17] 64.3 µM | [1] 96.2 µM | [2] > 100 µM | [3] 17.3 µM | [4] 59.3 µM | [6] 36.5 µM | [7] 43.9 µM | [8] 52.4 µM | [19] > 100 µM | [9] 22.5 µM | [10] 51.2 µM | [11] 75.2 µM | [12] 22.2 µM | [18] 47.2 µM | [13] 38.2 µM | [14] 36.1 µM | [15] > 100 µM | [16] 69.7 µM

CC(=O)Oc1cc2c(cc1OC(C)=O)OCC(c1ccccc1)C2 (stereo not given)
inactive: [1] 13 µM | [2] 16.4 µM | [3] 4.4 µM | [4] 18.1 µM | [5] 29.1 µM | [6] 27.6 µM | [7] 43.5 µM | [9] 5.85 µM | [10] 16.1 µM | [11] 22.2 µM | [12] 22.6 µM | [13] 8.39 µM | [14] 16.4 µM | [15] 15 µM | [16] 6.5 µM

COC(=O)C1=C(c2ccc3c(c2)OCO3)O[C@H](c2ccc3c(c2)OCO3)[C@H]1COC(C)=O
inactive: [17] 36.2 µM | [1] 46.7 µM | [2] 27.5 µM | [3] 78.9 µM | [4] 15.3 µM | [5] 35.7 µM | [6] 51.5 µM | [7] 36.2 µM | [8] 32.6 µM | [9] 35.2 µM | [10] 53.2 µM | [11] 39 µM | [12] 55.6 µM | [13] 60.4 µM | [14] 34.4 µM | [16] > 100 µM

CC1(C)OP(=O)(c2ccccc2)C=C1Sc1ccc([N+](=O)[O-])cc1[N+](=O)[O-] (stereo not given)
inactive: [17] 38.6 µM | [1] > 100 µM | [2] > 100 µM | [4] > 100 µM | [6] 36.6 µM | [7] 45.6 µM | [8] 63.8 µM | [10] 78.3 µM | [11] > 100 µM | [12] 30.4 µM | [18] 65.3 µM | [14] 95.9 µM | [15] > 100 µM | [16] 65.5 µM

CC(C)N(C(=O)C12C3C4C1C1C2C3C41C(=O)O)C(C)C (stereo not given)
inactive: [17] > 100 µM | [1] > 100 µM | [2] > 100 µM | [3] > 100 µM | [4] > 100 µM | [5] > 100 µM | [6] > 100 µM | [7] > 100 µM | [8] > 100 µM | [9] > 100 µM | [10] > 100 µM | [11] > 100 µM | [12] > 100 µM | [13] > 100 µM | [14] > 100 µM | [15] > 100 µM | [16] > 100 µM

COC(=O)Cc1cc(OC)c(OC)cc1Br
inactive: [17] > 100 µM | [1] > 100 µM | [2] > 100 µM | [3] > 100 µM | [4] > 100 µM | [5] > 100 µM | [6] > 100 µM | [7] > 100 µM | [8] > 100 µM | [9] > 100 µM | [10] > 100 µM | [11] > 100 µM | [12] > 100 µM | [13] > 100 µM | [14] > 100 µM | [15] > 100 µM | [16] > 100 µM

CCOC(=O)Nc1cc2nnc(-c3ccccc3)nc2c(N)n1
inactive: [17] 10.4 µM | [1] 4.81 µM | [2] 27.6 µM | [3] 32.1 µM | [4] 2.73 µM | [5] 15.8 µM | [6] 10.9 µM | [7] 6.07 µM | [8] 4.06 µM | [10] 4.8 µM | [11] 24 µM | [12] 6.43 µM | [13] 24.3 µM | [14] 3.52 µM | [15] 32.1 µM | [16] 14.6 µM
